Assay results as given in article PMC12332266 (Frontiers in Pharmacology, 2025).
Like-named read-outs stand apart in the source and are kept apart here.

How the values were obtained:
[1] = test system: hiPSC-CM (iCell Cardiomyocytes^2); test: RTCA CardioECR assessment (impedance and electrophysiology parameters); conditions: human, 72 h
Method in brief: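 iCell^2 cardiomyocytes on fibronectin-coated ePlates monitored continuously by impedance for cell index, beating rate and amplitude. Field potential duration and spike amplitude were recorded from day 4–6 after monolayer formation. Data were double-normalized to DMSO control and baseline, with variability given as SD.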

[2] = test system: hiPSC-CM (iCell Cardiomyocytes^2); test: Intracellular miRNA expression by RT-qPCR in hiPSC-CM pellets after 72-hour treatment; conditions: for fold induction at 0.1 µM / fold induction at 0.3 µM / fold induction at 3 µM / fold induction at 10 µM: Homo sapiens
Method in brief: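 After 72-hour treatment and RTCA CardioECR assessment, total RNA from hiPSC-CM pellets was reverse transcribed, pre-amplified and quantified by TaqMan RT-qPCR against a 17-miRNA panel. Triplicates were pooled, so no statistical analysis was performed.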

[3] = test system: hiPSC-CM (iCell Cardiomyocytes^2); conditions: human
Protocol: (§1) To extract total RNA from the culture media, hiPSC-CM were plated on 24-well plates by seeding 275,000 cells per mL per well. hiPSC-CM were maintained for 7 days in 200 µL of iCell^2 Maintenance Medium (iCell^2 MM; FCDI) for the 48-well ePlate and in 1 mL for 24-well plate, before drug treatment. Culture media change was performed every 2 days.
(§2) Stock solutions were diluted 1:1000 in iCell^2 MM before treatment and equilibrated at 37°C. As vehicle control, DMSO 0.1% was added to the media. Drug treatments on biological replicates (n = 3) were refreshed daily, and culture media was collected for further miRNA analysis. After 72 h, cell pellets were collected and stored at −80°C until total RNA extraction.
(§3) hiPSC-CM culture media was collected daily from 24-well plates, and centrifuged (+4°C, 11,000 rpm) for 5 min to remove cellular debris/cells. Total RNA was extracted from 300 µL of supernatant by Trizol/Chloroform phase separation and purification of total RNA by miRNeasy 96 Kit (Qiagen, Hilden, Germany). The spike-in control cel-miR-39 (Qiagen, Hilden, Germany) was used to check the quality of samples and PCR efficiency. DNase treatment (RNase-Free DNase Set (Qiagen, Hilden, Germany)) was applied according to the manufacturer’s instructions. After the RNA extraction, the same RT-qPCR protocol as for hiPSC-CM lysate was followed. Multiple unpaired t-tests were performed to compare delta CT-values (CT-values normalized to the housekeeping miRNAs) of the treatment groups to the DMSO control.
(§4) Analysis of miRNA in the culture media of hiPSC-CM treated with structural cardiotoxicants was performed at 24-, 48- and 72-hour post-treatment. […] The treatment concentrations were selected based on the MEC for CI to ensure that the preliminary evidence of cardiotoxicity in hiPSC-CMs could potentially lead to miRNA release in the culture media.

[4] = ref extensive literature search, cited from earlier work
[5] = test system: hiPSC-CM (iCell Cardiomyocytes^2); test: miRNA in hiPSC-CM culture media by RT-qPCR at 24, 48 and 72 h post-treatment; conditions: 3 µM;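 note: medium RNA quantified by RT-qPCR, CT-values normalized to housekeeping miRNAs, compared against DMSO control, doses chosen from the MEC for CI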
Protocol: as §1, §2, §3, §4

[6] = 72 h, read-out: hsa-miR-7-5p fold change
[7] = 72 h, read-out: hsa-miR-29a-5p fold change
[8] = 72 h, read-out: hsa-miR-126-3p fold change
[9] = 72 h, read-out: hsa-miR-133b fold change
[10] = 72 h, read-out: hsa-miR-146b-5p fold change
[11] = 72 h, read-out: hsa-miR-182-5p fold change
[12] = 72 h, read-out: hsa-miR-185-3p fold change
[13] = 72 h, read-out: hsa-miR-187-3p fold change
[14] = 72 h, read-out: hsa-miR-208b-3p fold change
[15] = 72 h, read-out: hsa-miR-365a-5p fold change

Cc1[nH]c(=O)c(C#N)cc1-c1ccncc1 [Milrinone]
Field Potential Duration MEC [1]: 0.3 µM | Spike Amplitude (SA) MEC [1]: 0.1 µM | miRNAs hiPSC-CM pellet, MEC overall [2]: 0.1 µM | miRNAs upregulated at the MEC overall (hiPSC-CM pellet) [2]: miR-126-3p, miR-133b, miR-146b-5p | fold induction at 0.1 µM [2, 6]: 1.1 | fold induction at 0.3 µM [2, 6]: 1.1 | fold induction at 3 µM [2, 6]: 0.5 | fold induction at 10 µM [2, 6]: 1.3 | fold induction at 0.1 µM [2, 7]: 0.6 | fold induction at 0.3 µM [2, 7]: 0.02 | fold induction at 10 µM [2, 7]: 0.3 | fold induction at 0.1 µM [2, 8]: 7.7 | fold induction at 0.3 µM [2, 8]: 5.9 | fold induction at 3 µM [2, 8]: 0.4 | fold induction at 10 µM [2, 8]: 1.7 | fold induction at 0.1 µM [2, 9]: 2.2 | fold induction at 0.3 µM [2, 9]: 2.6 | fold induction at 3 µM [2, 9]: 3.5 | fold induction at 10 µM [2, 9]: 2.5 | fold induction at 0.1 µM [2, 10]: 3.6 | fold induction at 0.3 µM [2, 10]: 19 | fold induction at 3 µM [2, 10]: 5 | fold induction at 10 µM [2, 10]: 3 | fold induction at 0.1 µM [2, 11]: 1.9 | fold induction at 0.3 µM [2, 11]: 1.6 | fold induction at 3 µM [2, 11]: 0.9 | fold induction at 10 µM [2, 11]: 1.3 | fold induction at 0.3 µM [2, 12]: 0.2 | fold induction at 3 µM [2, 12]: 16.3 | fold induction at 10 µM [2, 12]: 0.9 | fold induction at 0.3 µM [2, 13]: 3.7 | fold induction at 3 µM [2, 13]: 1.2 | fold induction at 10 µM [2, 13]: 3.3 | fold induction at 0.1 µM [2, 14]: 1.3 | fold induction at 0.3 µM [2, 14]: 1.8 | fold induction at 3 µM [2, 14]: 2.1 | fold induction at 10 µM [2, 14]: 2.4 | fold induction at 0.1 µM [2, 15]: 3.7 | fold induction at 0.3 µM [2, 15]: 4.9 | fold induction at 3 µM [2, 15]: 0.4 | fold induction at 10 µM [2, 15]: 1.1 | hsa-miR-7-5p fold change, intracellular ([2]; human, 72 h, 3 µM): 0.5 | hsa-miR-182-5p fold change, intracellular ([2]; human, 72 h, 3 µM): 0.9 | hsa-miR-185-3p fold change, intracellular ([2]; human, 72 h, 3 µM): 16.3 | hsa-miR-365a-5p fold change, intracellular ([2]; human, 72 h, 3 µM): 0.4 | miRNAs in culture media of hiPSC-CM, in words [3]: hsa-miR-7-5p and hsa-miR-126-3p, were upregulated after 72-hour exposure | miRNAs in culture media of hiPSC-CM, in words ([3]; 3 µM): for hsa-miR-126-3p, upregulation was also observed after 24-hour treatment | Cmax total ([4]; Supplementary Table 1): 620 to 1180 nM | Cmax total ([4]; Table 1): 620 to 1180 nM | hsa-miR-126-3p fold change, culture media ([5]; 24h): 3.9 | hsa-miR-208b-3p fold change, culture media ([5]; 24h): 6.0 | hsa-miR-[…] change, culture media ([5]; 24h): 3.5 | hsa-miR-133b fold change, culture media ([5]; 48h): 0.8 | hsa-miR-208b-3p fold change, culture media ([5]; 48h): 2.8 | hsa-miR-[…] change, culture media ([5]; 48h): 1.4 | hsa-miR-7-5p fold change, culture media ([5]; 72 h): 9.1 | hsa-miR-126-3p fold change, culture media ([5]; 72 h): 2.5 | hsa-miR-133b fold change, culture media ([5]; 72 h): 2.5 | hsa-miR-208b-3p fold change, culture media ([5]; 72 h): 0.6 | hsa-miR-[…] change, culture media ([5]; 72 h): 4.4
